Assay [1] concerns bronchial carcinoma (lung cancer). The assay is described as follows: Therapy outcome of chemotherapy in patients, assessed by computer tomography after two to three cycles. Type of assay: in vivo, human. Set-up: key: PR=partial response (i.e. the carcinoma has become detectably smaller); NC=“No Change”=zero growth of the carcinoma; Progress=the carcinoma has continued to grow, no therapeutic success. The settings on record: patient tumor ID 282, NSCLC/St. IV; without platinum derivatives. From the text: The therapy outcome, namely the change or the state of the tumor after two to three cycles of treatment compared to the state before the start of treatment, has been analyzes by computer tomography and classified on the basis of the “standard”—rating scale known and conventional in the art as class I=complete remission (CR), class II=partial remission (PR), class III=zero growth (“no change”, NC) and class IV=Progress (progressive tumor growth). The therapy outcomes achieved are shown in table 1, column 5 and in table 2 in column 3 of each group (1 to 4).

The test system of assay [2] is tumor cells of lung cancer (bronchial carcinoma) tissue samples. The assay is described as follows: Chemosensitivity test (IC50 determination) by colony formation in tumor digests ex vivo. The assay is classed as cell-based, human. The method, then: Parts of freshly (under general anesthesia of the patient) taken (here biopsied) lung cancer (bronchial carcinoma) tissue were transported to the laboratory and processed immediately for IC50 determination.
The transport to the laboratory should take place in chilled culture medium. For this purpose in particular HEPES- and NaHCO3-buffered, preferably flavin-free RPMI 1640 culture medium containing 10% fetal bovine serum, 100 IU/mL penicillin G, 100 ug/mL streptomycin, 20 μg/mL Amikacin (as antibiotics) and […] Voriconazole (as an antifungal agent) are suitable.
In the laboratory, this tumor tissue samples were cleaned, weighed, minced and suspended in culture medium.
For this purpose in particular the method according to DE 102012003700 B3 is suitable, wherein about 5.5 mg tumor tissue sample per 1 mL of culture medium are subjected to enzymatic digestion with collagenase, preferably by using Clostridium histolytikum collagenase (Sigma, 230 CDU/mL), in a Petri dish under standard conditions in a gassing incubator (36-37° C., 3.5% CO2 in water vapor saturated air) for 4-5 hours.
Following the collagenase digestion, the digestion product is centrifuged at 50×g, the supernatant is discarded and the pellet is resuspended in 1 mL of fresh culture medium. With this resuspension—hereinafter referred to as “tumor digest”—the chemosensitivity test (IC50 determination) is performed
The thus prepared culture plates were pre-incubated for about 1 hour under standard conditions (i.e.: gassing incubator; 36-37° C.; 3.5% CO2 in water vapor saturated air). Subsequently, 150 μl tumor digest were added to these pre-incubated wells, they were incubated for 72 hours under standard conditions (see above), and then analyzed microscopically.
After the end of incubation, in all tumor digest test preparations the culture medium was removed, and the existing cell colonies were rinsed with phosphate buffered saline (PBS) and drained. Subsequently, the cells were fixed with methanol at minus (−) 25° C. for 5 to 10 minutes and then subjected to Giemsa staining according to Gurr.

Assay [3] deals with lung adenocarcinoma cell strain A240286S. Nature of the assay: Verification test of cisplatin concentrations by IC50 determination (cell counting). The settings on record: 72 hours; 15 evaluable test preparations; read-out: IC50-values of A240286S cells in the verification tests, average. Type of assay: cell-based, human. The method, then:
The final concentration gradients were pre-incubated for approximately 30 minutes under standard conditions (see above). […] The culture plate was then incubated, in parallel with the culture plate fitted with the tumor digests, for 72 hours under standard conditions. In the batches of the verification test (with the cells of the lung adenocarcinoma cell strain A240286S) the culture medium was decanted after the end of incubation. The present cellular layers were rinsed with PBS, drained and then removed from the culture vessel with Accutase. The cells were isolated by passing them through a blunt cannula no. 20. Using a cell-counting-and-analyzing apparatus (here the Casy I Cell Analyzer from Roche, Basel), the cell density was determined for each test batch and reduced by the inoculum.

These results are taken from patent US20160103122A1, “METHOD FOR THE CREATION OF A DATABASE FOR INITIAL ASSESSMENT OF THE EFFECTIVENESS OF ACTIVE AGENTS IN TUMOR THERAPY” (FLACOD GMBH, priority 2013, published 2016).

“And” between values parts separate entries of the source, which are not always exact repeats. Equal values may be shown once. Read-outs that look alike come from different tables or passages of the source. A value given as a limit tells only on which side of the number the result lay.

Turning to `Nc1ccn([C@@H]2O[C@H](CO)[C@@H](O)C2(F)F)c(=O)n1` [Gemcitabine], in assay [1], the Therapy outcome is recorded as “Progress”.
For `N.N.[Cl][Pt][Cl]` [cisplatin], the IC50 – broadly, the midpoint of a concentration-inhibition curve – was 3.64 µM in assay [2] (Group 1 (IC50 < 5 μM), 3 tumor samples, read-out: IC50 mean value); 6.73 µM and 6.72 µM in assay [2] (Group 2 (IC50 ≧ 5 < 8 μM), 7 tumor samples, read-out: IC50 mean value); 21.1 µM in assay [2] (Group 3 (IC50 ≧ 8 bis 25.6 μM), 5 tumor samples, read-out: IC50 mean value); 2.6 µM in assay [2] (tumor sample ID 220, SCLC/St. IV, 72 hours, colonies of epithelial tumor cells, read-out: IC50); 7.77 µM in assay [2] (tumor sample ID 221, NSCLC/St. IV, 72 hours, read-out: IC50); above 26 µM in assay [2] (tumor sample ID 228, NSCLC/St. IV, 72 hours, read-out: IC50). Besides, the IC50 in assay [2] (tumor sample ID 233, NSCLC/St. IV, 72 hours, read-out: IC50) was above 26 µM; in assay [2] (tumor sample ID 245, NSCLC/St. IV, 72 hours, read-out: IC50), 7.74 µM; in assay [2] (tumor sample ID 255, SCLC/St. IV, 72 hours, read-out: IC50) it was 4.58 µM; in assay [2] (tumor sample ID 258, NSCLC/St. IV, 72 hours, read-out: IC50), 16.7 µM; in assay [2] (tumor sample ID 260, NSCLC/St. IIIb, 72 hours, read-out: IC50) it was 5.61 µM; in assay [2] (tumor sample ID 272, SCLC/St. IV, 72 hours, read-out: IC50), 21 µM. Besides, the IC50 in assay [2] (tumor sample ID 275, NSCLC/St. IV, 72 hours, read-out: IC50) turned out to be 5.38 µM; in assay [2] (tumor sample ID 277, NSCLC/St. IIIa, 72 hours, read-out: IC50), 7.58 µM; in assay [2] (tumor sample ID 278, NSCLC/St. IV (adenocarcinoma), 72 hours, read-out: IC50), 5.25 µM; in assay [2] (tumor sample ID 279, NSCLC/St. IV (squamous cell carcinoma), 72 hours, read-out: IC50), 3.73 µM; in assay [2] (tumor sample ID 282, NSCLC/St. IV, 72 hours, read-out: IC50), 14.8 µM; in assay [2] (tumor sample ID 294, NSCLC/St. IV, 72 hours, read-out: IC50) it was 7.7 µM. Further, the IC50 in assay [2] (tumor sample ID 297, NSCLC/St. IV, 72 hours, read-out: IC50) stood at 25.6 µM; in assay [2] (tumor sample ID 311, NSCLC/KI. IIIb, 72 hours, read-out: IC50) it was 22.1 µM; in assay [2] (tumor sample ID 314, NSCLC/KI. IV, 72 hours, read-out: IC50), 20.5 µM; in assay [3], 1.2 µM.
